The source made the active and inactive calls. How the calls were made is not given here.
System: CCRIS mutagenicity, Ames/micronucleus/aberration tests
Test: CCRIS mutagenicity studies
[1] = Test System: AMES SALMONELLA TYPHIMURIUM, Strain/Indicator: TA98, Metabolic Activation: NONE, Method: STANDARD PLATE
[2] = Test System: AMES SALMONELLA TYPHIMURIUM, Strain/Indicator: TA98, Metabolic Activation: RAT, LIVER, S-9, AROCLOR 1254, Method: STANDARD PLATE
[3] = Test System: AMES SALMONELLA TYPHIMURIUM, Strain/Indicator: TA100, Metabolic Activation: NONE, Method: STANDARD PLATE
[4] = Test System: AMES SALMONELLA TYPHIMURIUM, Strain/Indicator: TA1538, Metabolic Activation: NONE, Method: STANDARD PLATE
[5] = Test System: AMES SALMONELLA TYPHIMURIUM, Strain/Indicator: TA100, Metabolic Activation: RAT, LIVER, S-9, AROCLOR 1254, Method: STANDARD PLATE
[6] = Test System: AMES SALMONELLA TYPHIMURIUM, Strain/Indicator: TA98, Metabolic Activation: NONE, Method: PREINCUBATION
[7] = Test System: AMES SALMONELLA TYPHIMURIUM, Strain/Indicator: TA100, Metabolic Activation: NONE, Method: PREINCUBATION

COc1cccc2c1C(=O)c1c(O)c3c(c(O)c1C2=O)C[C@@](O)(C(C)=O)C[C@@H]3O
mutagenic call [1]: active; positive | mutagenic call [2]: active; positive | mutagenic call [3]: inactive; negative | mutagenic call [4]: inactive; negative

Cn1sc(Cl)cc1=O (tested in a mixture with another compound)
mutagenic call [3]: active; positive | mutagenic call [5]: active; positive

[N-]=[N+]=CC(=O)NCC(=O)NN
mutagenic call (Test System: AMES SALMONELLA TYPHIMURIUM, Strain/Indicator: TA1535, Metabolic Activation: NONE, Method: STANDARD PLATE): active; positive | mutagenic call (Test System: UDS RODENT CELLS, Strain/Indicator: THY INCORP (NON-S-PHASE), Metabolic Activation: NONE, Method: AUTORADIOGRAPHY): active; positive

[Cl][Rh-2]([Cl])([Cl])([Cl])[Cl]
mutagenic call (Test System: AMES SALMONELLA TYPHIMURIUM, Strain/Indicator: TA97A, Metabolic Activation: NONE, Method: STANDARD PLATE): inactive; negative | mutagenic call (Test System: AMES SALMONELLA TYPHIMURIUM, Strain/Indicator: TA97A, Metabolic Activation: RAT, LIVER, S-9, PHENOBARBITAL AND 5,6-BENZOFLAVONE, Method: STANDARD PLATE): active; positive | mutagenic call (Test System: AMES SALMONELLA TYPHIMURIUM, Strain/Indicator: TA97A, Metabolic Activation: RAT, LIVER, S-9, PHENOBARBITAL AND BETA-NAPHTHOFLAVONE, Method: STANDARD PLATE): active; positive | mutagenic call [1]: active; positive | mutagenic call (Test System: AMES SALMONELLA TYPHIMURIUM, Strain/Indicator: TA98, Metabolic Activation: RAT, LIVER, S-9, PHENOBARBITAL AND 5,6-BENZOFLAVONE, Method: STANDARD PLATE): active; positive | mutagenic call (Test System: AMES SALMONELLA TYPHIMURIUM, Strain/Indicator: TA98, Metabolic Activation: RAT, LIVER, S-9, PHENOBARBITAL AND BETA-NAPHTHOFLAVONE, Method: STANDARD PLATE): active; positive | mutagenic call [3]: inactive; negative | mutagenic call (Test System: AMES SALMONELLA TYPHIMURIUM, Strain/Indicator: TA100, Metabolic Activation: RAT, LIVER, S-9, PHENOBARBITAL AND 5,6-BENZOFLAVONE, Method: STANDARD PLATE): active; positive | mutagenic call (Test System: AMES SALMONELLA TYPHIMURIUM, Strain/Indicator: TA100, Metabolic Activation: RAT, LIVER, S-9, PHENOBARBITAL AND BETA-NAPHTHOFLAVONE, Method: STANDARD PLATE): active; positive | mutagenic call (Test System: AMES SALMONELLA TYPHIMURIUM, Strain/Indicator: TA102, Metabolic Activation: NONE, Method: STANDARD PLATE): active; positive | mutagenic call (Test System: AMES SALMONELLA TYPHIMURIUM, Strain/Indicator: TA102, Metabolic Activation: RAT, LIVER, S-9, PHENOBARBITAL AND 5,6-BENZOFLAVONE, Method: STANDARD PLATE): active; positive | mutagenic call (Test System: AMES SALMONELLA TYPHIMURIUM, Strain/Indicator: TA102, Metabolic Activation: RAT, LIVER, S-9, PHENOBARBITAL AND BETA-NAPHTHOFLAVONE, Method: STANDARD PLATE): active; positive

CC1=CC(=C(C#N)C#N)C=C(C=Cc2ccc(N(C)C)cc2)O1
mutagenic call (Test System: AMES SALMONELLA TYPHIMURIUM, Strain/Indicator: TA96, Metabolic Activation: RAT, LIVER, S-9, AROCLOR 1254, Method: STANDARD PLATE): active; positive | mutagenic call (Test System: AMES SALMONELLA TYPHIMURIUM, Strain/Indicator: TA97, Metabolic Activation: RAT, LIVER, S-9, AROCLOR 1254, Method: STANDARD PLATE): active; positive | mutagenic call [2]: active; positive | mutagenic call [5]: active; positive | mutagenic call (Test System: AMES SALMONELLA TYPHIMURIUM, Strain/Indicator: TA102, Metabolic Activation: RAT, LIVER, S-9, AROCLOR 1254, Method: STANDARD PLATE): active; positive | mutagenic call (Test System: AMES SALMONELLA TYPHIMURIUM, Strain/Indicator: TA104, Metabolic Activation: RAT, LIVER, S-9, AROCLOR 1254, Method: STANDARD PLATE): active; positive | mutagenic call [4]: inactive; negative | mutagenic call (Test System: AMES SALMONELLA TYPHIMURIUM, Strain/Indicator: TA1538, Metabolic Activation: RAT, LIVER, MICROSOMES, 3-METHYLCHOLANTHRENE, Method: STANDARD PLATE): active; positive | mutagenic call (Test System: AMES SALMONELLA TYPHIMURIUM, Strain/Indicator: TA1538, Metabolic Activation: RAT, LIVER, MICROSOMES, AROCLOR 1254, Method: STANDARD PLATE): active; positive | mutagenic call (Test System: AMES SALMONELLA TYPHIMURIUM, Strain/Indicator: TA1538, Metabolic Activation: RAT, LIVER, MICROSOMES, PHENOBARBITAL, Method: STANDARD PLATE): active; positive | mutagenic call (Test System: AMES SALMONELLA TYPHIMURIUM, Strain/Indicator: TA1538, Metabolic Activation: RAT, LIVER, MICROSOMES, Method: STANDARD PLATE): active; positive | mutagenic call (Test System: AMES SALMONELLA TYPHIMURIUM, Strain/Indicator: TA1538, Metabolic Activation: RAT, LIVER, S-9, AROCLOR 1254, Method: STANDARD PLATE): active; positive

Nc1c(Cl)cc([N+](=O)[O-])cc1Cl
mutagenic call (Test System: AMES SALMONELLA TYPHIMURIUM, Strain/Indicator: TA98, Metabolic Activation: HAMSTER, LIVER, S-9, AROCLOR 1254 (30%), Method: PREINCUBATION): active; positive | mutagenic call [6]: active; positive | mutagenic call (Test System: AMES SALMONELLA TYPHIMURIUM, Strain/Indicator: TA98, Metabolic Activation: RAT, LIVER, S-9, AROCLOR 1254 (30%), Method: PREINCUBATION): active; positive | mutagenic call (Test System: AMES SALMONELLA TYPHIMURIUM, Strain/Indicator: TA100, Metabolic Activation: HAMSTER, LIVER, S-9, AROCLOR 1254 (30%), Method: PREINCUBATION): inactive; negative | mutagenic call [7]: inactive; negative | mutagenic call (Test System: AMES SALMONELLA TYPHIMURIUM, Strain/Indicator: TA100, Metabolic Activation: RAT, LIVER, S-9, AROCLOR 1254 (30%), Method: PREINCUBATION): inactive; negative | mutagenic call (Test System: AMES SALMONELLA TYPHIMURIUM, Strain/Indicator: TA100, Metabolic Activation: RAT, LIVER, S-9, KANECHLOR 500, Method: PREINCUBATION): inactive; negative

Cc1nc(N)nc(N)n1
mutagenic call [6]: inactive; negative | mutagenic call (Test System: AMES SALMONELLA TYPHIMURIUM, Strain/Indicator: TA98, Metabolic Activation: RAT LIVER S-9, PHENOBARBITAL AND BETA-NAPHTHOFLAVONE, Method: PREINCUBATION): inactive; negative | mutagenic call [7]: inactive; negative | mutagenic call (Test System: AMES SALMONELLA TYPHIMURIUM, Strain/Indicator: TA100, Metabolic Activation: RAT LIVER S-9, PHENOBARBITAL AND BETA-NAPHTHOFLAVONE, Method: PREINCUBATION): inactive; negative | mutagenic call (Test System: AMES SALMONELLA TYPHIMURIUM, Strain/Indicator: TA1535, Metabolic Activation: NONE, Method: PREINCUBATION): inactive; negative | mutagenic call (Test System: AMES SALMONELLA TYPHIMURIUM, Strain/Indicator: TA1535, Metabolic Activation: RAT LIVER S-9, PHENOBARBITAL AND BETA-NAPHTHOFLAVONE, Method: PREINCUBATION): inactive; negative | mutagenic call (Test System: AMES SALMONELLA TYPHIMURIUM, Strain/Indicator: TA1537, Metabolic Activation: NONE, Method: PREINCUBATION): inactive; negative | mutagenic call (Test System: AMES SALMONELLA TYPHIMURIUM, Strain/Indicator: TA1537, Metabolic Activation: RAT LIVER S-9, PHENOBARBITAL AND BETA-NAPHTHOFLAVONE, Method: PREINCUBATION): inactive; negative | mutagenic call (Test System: AMES SALMONELLA TYPHIMURIUM, Strain/Indicator: TA1538, Metabolic Activation: NONE, Method: PREINCUBATION): inactive; negative | mutagenic call (Test System: AMES SALMONELLA TYPHIMURIUM, Strain/Indicator: TA1538, Metabolic Activation: RAT LIVER S-9, PHENOBARBITAL AND BETA-NAPHTHOFLAVONE, Method: PREINCUBATION): inactive; negative | mutagenic call (Test System: E.COLI, Strain/Indicator: WP2UVRA, Metabolic Activation: NONE, Method: PREINCUBATION): inactive; negative | mutagenic call (Test System: E.COLI, Strain/Indicator: WP2UVRA, Metabolic Activation: RAT LIVER S-9, PHENOBARBITAL AND BETA-NAPHTHOFLAVONE, Method: PREINCUBATION): inactive; negative

CCN(CCCCO)N=O
mutagenic call (Test System: AMES SALMONELLA TYPHIMURIUM, Strain/Indicator: TA1535, Metabolic Activation: RAT, LIVER, S-9, KC500 OR PHENOBARBITAL, Method: LIQUID SUSPENSION): active; positive

COc1ccc(NC(=O)c2csc([N+](=O)[O-])c2)cc1
mutagenic call [1]: active; positive | mutagenic call [3]: active; positive

Reference: PubChem BioAssay AID1259407 (Chemical Carcinogenesis Research Information System (CCRIS), 2018)
